Reference: PMC6598531, “Appraisal of anti-protozoan activity of nitroaromatic benzenesulfonamides inhibiting carbonic anhydrases from Trypanosoma cruzi and Leishmania donovani” (Journal of Enzyme Inhibition and Medicinal Chemistry, 2019)
≈ marks a conversion by molar mass, not a printed value. Like-named read-outs stand apart in the source and are kept apart here.

Experiments:
[1] = molecular target: hCA II (Homo sapiens, UniProt P00918); experiment: stopped flow CO2 hydrase assay, hCA II inhibition
[2] = in vitro; settings: mouse, RAW 264.7 macrophages
[3] = system: L. infantum; experiment: growth inhibition of L. infantum promastigotes (resazurin); type: cell-based; settings: Leishmania infantum, 48 h; for MIC: promastigotes, 28 °C
[4] = system: T. cruzi Y; experiment: growth inhibition of T. cruzi Y epimastigotes (resazurin); type: cell-based; settings: Trypanosoma cruzi, 48 h, 28 °C
[5] = molecular target: hCA I (Homo sapiens, UniProt P00915); experiment: stopped flow CO2 hydrase assay, hCA I inhibition
Sequence of hCA I (P00915 whole entry): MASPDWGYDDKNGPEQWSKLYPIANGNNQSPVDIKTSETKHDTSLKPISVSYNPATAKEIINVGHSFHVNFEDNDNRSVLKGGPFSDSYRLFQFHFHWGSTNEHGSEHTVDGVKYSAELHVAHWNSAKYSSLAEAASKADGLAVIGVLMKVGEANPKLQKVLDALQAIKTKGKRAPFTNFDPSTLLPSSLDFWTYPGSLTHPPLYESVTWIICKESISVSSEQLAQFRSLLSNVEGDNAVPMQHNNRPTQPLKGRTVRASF

[6] = molecular target: LdcCA (Leishmania infantum, UniProt A4HSV2); experiment: biochemical
Sequence of LdcCA (A4HSV2 1-306): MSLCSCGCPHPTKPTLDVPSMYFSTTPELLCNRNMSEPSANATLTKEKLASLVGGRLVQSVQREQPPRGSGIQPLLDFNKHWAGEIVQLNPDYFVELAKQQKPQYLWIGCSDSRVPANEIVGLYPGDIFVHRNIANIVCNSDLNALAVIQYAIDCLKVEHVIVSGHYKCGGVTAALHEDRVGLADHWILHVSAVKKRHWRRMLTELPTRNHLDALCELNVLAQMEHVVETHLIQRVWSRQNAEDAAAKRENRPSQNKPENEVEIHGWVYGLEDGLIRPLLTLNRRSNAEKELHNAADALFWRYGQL

[7] = system: L. amazonensis; experiment: growth inhibition of L. amazonensis promastigotes (resazurin); type: cell-based; settings: Leishmania amazonensis, 48 h; for MIC: promastigotes, 28 °C
[8] = system: T. cruzi Dm 28c; experiment: growth inhibition of T. cruzi Dm28c epimastigotes (resazurin); type: cell-based; settings: Trypanosoma cruzi, 48 h; for MIC: epimastigotes, 28 °C
[9] = read-out: KI hCA II, stopped flow CO2 hydrase assay, mean from three assays
[10] = read-out: KI hCA I, stopped flow CO2 hydrase assay, mean from three assays
[11] = concentration which reduced the number of promastigotes by 50%

IC50 [3, 11] | IC50 [7, 11] | IC50 ([8]; concentration which reduced the proliferation of epimastigotes by 50%) | Compound | Ki [1, 9] | CC50 at 48 h [2] | MIC [3] | MIC [4] | Ki [5, 10] | SI (KI1/KI2) CA I/LdcCA [6] | SI (KI1/KI2) CA II/LdcCA [6] | Ki ([6]; read-out: KI LdCA) | MIC [7] | MIC [8] | Ki [1] | Ki [5] | Ki [6]
 |  |  | NS(=O)(=O)c1ccc(O)c([N+](=O)[O-])c1 [Compound 4] | 240 nM | 97600 ± 11100 nM | > 400 µM | > 256 µM | 910 nM | 4.3 | 1.1 | 210 nM | > 400 µM | > 256 µM |  |  | 
 |  |  | COc1cccc(NC(=O)Nc2cc(S(N)(=O)=O)cc([N+](=O)[O-])c2O)c1 [Compound 18] | 5150 nM | > 256000 nM | > 400 µM | > 256 µM | 8210 nM | 8.6 | 5.4 | 950 nM | > 400 µM | > 256 µM |  |  | 
1770 ± 350 nM | 1650 ± 280 nM |  | C[C@@H]1[C@H](O)[C@@H](C)/C=C/C=C/C=C/C=C/C=C/C=C/C=C/[C@H](O[C@@H]2O[C@H](C)[C@@H](O)[C@H](N)[C@@H]2O)C[C@@H]2O[C@](O)(C[C@@H](O)C[C@@H](O)[C@H](O)CC[C@@H](O)C[C@@H](O)CC(=O)O[C@H]1C)C[C@H](O)[C@H]2C(=O)O [Amp, amphotericin B, reference compound] |  | 1000 nM | 8 µM (≈ 7.39 µg/mL) |  |  |  |  |  | 8 µM (≈ 7.39 µg/mL) |  |  |  | 
 |  |  | Nc1cc(S(N)(=O)=O)cc([N+](=O)[O-])c1O [Compound 8, 3-amino-4-hydroxy-5-nitro-benzenesulfonamide] | 610 nM | > 256000 nM | > 400 µM | > 256 µM | 6180 nM | 13.4 | 1.3 | 460 nM | > 400 µM | > 256 µM |  |  | 
 |  |  | NS(=O)(=O)c1cc(NC(=O)NCCc2ccccc2)c(O)c([N+](=O)[O-])c1 [Compound 22] | 3080 nM |  |  |  | 9290 nM | 10.8 | 3.6 | 860 nM |  |  |  |  | 
 |  |  | NS(=O)(=O)c1cc(NC(=O)N[C@@H]2C(O)O[C@@H](CO)[C@H](O)[C@H]2O)c(O)c([N+](=O)[O-])c1 (stereo partly shown) [Compound 25] | 860 nM |  |  |  | 4920 nM | 1.7 | 0.3 | 2970 nM |  |  |  |  | 
 |  |  | NS(=O)(=O)c1cc(O)c(O)c([N+](=O)[O-])c1 [Compound 12] | 640 nM |  |  |  | 6210 nM | 15.9 | 1.6 | 390 nM |  |  |  |  | 
 |  |  | NS(=O)(=O)c1cc(NC(=O)NCc2ccco2)c(O)c([N+](=O)[O-])c1 [Compound 23] | 2530 nM |  |  |  |  | >49.0 | 2.5 | 1020 nM |  |  |  |  | 
 |  |  | NS(=O)(=O)c1cc(NC(=O)Nc2ccc(F)cc2)c(O)c([N+](=O)[O-])c1 [Compound 14] | 530 nM |  |  |  | 5390 nM | 5.5 | 0.5 | 980 nM |  |  |  |  | 
 |  |  | Cc1cc(NC(=O)Nc2cc(S(N)(=O)=O)cc([N+](=O)[O-])c2O)ccc1F [Compound 16] | 210 nM |  |  |  | 7580 nM | 2.6 | 0.1 | 2960 nM |  |  |  |  | 
 |  |  | NS(=O)(=O)c1cc(NC(=O)Nc2ccc(C(F)(F)F)cc2)c(O)c([N+](=O)[O-])c1 [Compound 15] |  |  |  |  | 5200 nM | 2.2 | 0.1 | 2340 nM |  |  | 240 nM |  | 
 |  |  | NS(=O)(=O)c1cc(NC(=O)c2ccccc2)c(OC(=O)c2ccccc2)c([N+](=O)[O-])c1 [Compound 9] | 390 nM |  |  |  | 1380 nM | 0.4 | 0.1 | 3870 nM |  |  |  |  | 
 |  |  | NS(=O)(=O)c1cc(NC(=O)c2ccc(F)cc2)c(OC(=O)c2ccc(F)cc2)c([N+](=O)[O-])c1 [Compound 10] | 460 nM | 180000 ± 21300 nM | > 400 µM | > 256 µM | 2920 nM | 0.3 | 0.1 | 8490 nM | > 400 µM | > 256 µM |  |  | 
 |  |  | NS(=O)(=O)c1cc(NC(=O)Nc2cc(C(F)(F)F)cc(C(F)(F)F)c2)c(O)c([N+](=O)[O-])c1 [Compound 21] | 1720 nM | > 256000 nM | > 400 µM | > 256 µM | 5990 nM | 1.6 | 0.5 | 3650 nM | > 400 µM | > 256 µM |  |  | 
 |  |  | Cc1cc(C)[n+](-c2cc(S(N)(=O)=O)cc([N+](=O)[O-])c2O)c(C)c1 [Compound 11] | 1810 nM | > 256000 nM | > 400 µM | > 256 µM |  | >7.6 | 0.3 | 6570 nM | > 400 µM | > 256 µM |  | > 50000 nM | 
 |  |  | Cc1cc(C)cc(NC(=O)Nc2cc(S(N)(=O)=O)cc([N+](=O)[O-])c2O)c1 [Compound 20] | 450 nM |  |  |  | 8330 nM | 4.5 | 0.2 | 1860 nM |  |  |  |  | 
 |  |  | NS(=O)(=O)c1cc(NC(=O)Nc2ccccc2)c(O)c([N+](=O)[O-])c1 [Compound 13] | 2780 nM |  |  |  |  | >47.2 | 2.6 | 1060 nM |  |  |  |  | 
 |  | 16600 ± 1510 nM | O=C(Cn1ccnc1[N+](=O)[O-])NCc1ccccc1 [Bzn, benznidazole, reference compound] |  | 115000 ± 9480 nM |  | 32 µM (≈ 8.33 µg/mL) |  |  |  |  |  | 32 µM (≈ 8.33 µg/mL) |  |  | 
 |  |  | NS(=O)(=O)c1cc(NC(=O)Nc2c(F)c(F)c(F)c(F)c2F)c(O)c([N+](=O)[O-])c1 [Compound 17] | 270 nM | > 256000 nM | > 400 µM | > 256 µM | 690 nM | 0.5 | 0.2 | 1360 nM | > 400 µM | > 256 µM |  |  | 
 |  |  | NS(=O)(=O)c1cc(NC(=O)Nc2ccc3c(c2)OCO3)c(O)c([N+](=O)[O-])c1 [Compound 19] | 4330 nM | 173000 ± 10400 nM | > 400 µM | > 256 µM |  | >24.6 | 2.1 | 2030 nM | > 400 µM | > 256 µM |  |  | 
 |  |  | NS(=O)(=O)c1cc([N+](=O)[O-])c(OC(=O)c2ccccc2)c([N+](=O)[O-])c1 [Compound 7] | 840 nM |  |  |  | 4790 nM | 1.0 | 0.2 |  |  |  |  |  | 4680 nM
 |  |  | CC(=O)OC[C@@H]1O[C@@H](OC(C)=O)[C@@H](NC(=O)Nc2cc(S(N)(=O)=O)cc([N+](=O)[O-])c2O)[C@H](OC(C)=O)[C@H]1OC(C)=O [Compound 24] | 1890 nM | > 256000 nM | > 400 µM | > 256 µM | 5670 nM | 1.6 | 0.5 | 3640 nM | > 400 µM | > 256 µM |  |  | 
